# Measured values reported in US8987312B2, “Alpha-keto heterocycles as FAAH inhibitors” (The Scripps Research Institute, priority 2008, dated 2015).
# Molecular target: T1, triacylglycerol hydrolase (TGH) (Mus musculus, UniProt Q8VCT4)
# T1 construct: with FP-Rh in brain and heart membrane proteome; from tissue; host or cells: brain and heart membrane proteome
# T1 sequence (Q8VCT4 19-565): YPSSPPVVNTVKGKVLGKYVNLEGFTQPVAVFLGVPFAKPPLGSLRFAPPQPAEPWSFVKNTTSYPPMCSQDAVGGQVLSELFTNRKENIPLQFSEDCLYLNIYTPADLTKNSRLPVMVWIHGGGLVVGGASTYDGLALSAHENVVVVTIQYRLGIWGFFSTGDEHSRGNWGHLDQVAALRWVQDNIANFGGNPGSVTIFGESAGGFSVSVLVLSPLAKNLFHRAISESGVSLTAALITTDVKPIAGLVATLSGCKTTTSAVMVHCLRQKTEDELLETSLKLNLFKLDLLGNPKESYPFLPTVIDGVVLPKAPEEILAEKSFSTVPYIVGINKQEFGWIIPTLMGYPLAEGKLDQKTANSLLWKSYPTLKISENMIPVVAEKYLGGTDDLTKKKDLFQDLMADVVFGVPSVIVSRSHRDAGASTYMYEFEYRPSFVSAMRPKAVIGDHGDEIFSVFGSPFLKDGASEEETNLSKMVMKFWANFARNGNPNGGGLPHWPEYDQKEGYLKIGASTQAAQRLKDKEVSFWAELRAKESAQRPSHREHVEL
# Test: Activity based protein profiling (proteome-wide selectivity screening, FP-Rh), TGH
# Assay type: biochemical
# Settings: Table 4; activity based protein profiling
# Description: (§1) Enzyme targets such as FAAH, KIAA1363, and TGH are labeled at the left margin.
row,IC50 [nM],SMILES
1,4500,"O=C(CCCCCCc1ccccc1)c1nnc(-c2ccccn2)s1 [12b, 7-Phenyl-1-(5-(pyridin-2-yl)-1,3,4-thiadiazol-2-yl)-heptan-1-one]"
2,> 100000,"O=C(O)c1cccc(-c2nc(C(=O)CCCCCCc3ccccc3)no2)n1 [10g, 6-(3-(7-Phenylheptanoyl)-1,2,4-oxadiazol-5-yl)-picolinic Acid]"
3,> 100000,O=C(O)c1cccc(-c2cnc(C(=O)CCCCCCc3ccccc3)o2)n1 [7g]

# Same assay, conditions: Table 4; ratio TGH IC50 / FAAH IC50 (fold selectivity for FAAH)
row,SMILES,TGH selectivity (value in parentheses)
1,"O=C(CCCCCCc1ccccc1)c1nnc(-c2ccccn2)s1 [12b, 7-Phenyl-1-(5-(pyridin-2-yl)-1,3,4-thiadiazol-2-yl)-heptan-1-one]",150
2,"O=C(CCCCCCc1ccccc1)c1nnc(-c2ccccn2)o1 [8b, 7-Phenyl-1-(5-(pyridin-2-yl)-1,3,4-oxadiazol-2-yl)-heptan-1-one]",140

# The remaining lines, values ahead:
row,TGH selectivity (value in parentheses),SMILES
1,> 1400,"O=C(O)c1cccc(-c2nc(C(=O)CCCCCCc3ccccc3)no2)n1 [10g, 6-(3-(7-Phenylheptanoyl)-1,2,4-oxadiazol-5-yl)-picolinic Acid]"
2,> 1000,O=C(O)c1cccc(-c2cnc(C(=O)CCCCCCc3ccccc3)o2)n1 [7g]

# System: not given
# Test: not given
# Settings: CREAE mice; cited from earlier work
row,SMILES,spasticity
1,CCCCCCCCCCCCCCCCS(=O)(=O)F [AM374],significantly reduce spasticity

# Molecular target: T2, purified recombinant rat FAAH (Rattus norvegicus, UniProt P97612)
# T2 construct: The truncated rat FAAH (rFAAH) was expressed in E. coli and purified as described; made in house; host or cells: Escherichia coli
# T2 sequence (P97612 30-579 limits assumed): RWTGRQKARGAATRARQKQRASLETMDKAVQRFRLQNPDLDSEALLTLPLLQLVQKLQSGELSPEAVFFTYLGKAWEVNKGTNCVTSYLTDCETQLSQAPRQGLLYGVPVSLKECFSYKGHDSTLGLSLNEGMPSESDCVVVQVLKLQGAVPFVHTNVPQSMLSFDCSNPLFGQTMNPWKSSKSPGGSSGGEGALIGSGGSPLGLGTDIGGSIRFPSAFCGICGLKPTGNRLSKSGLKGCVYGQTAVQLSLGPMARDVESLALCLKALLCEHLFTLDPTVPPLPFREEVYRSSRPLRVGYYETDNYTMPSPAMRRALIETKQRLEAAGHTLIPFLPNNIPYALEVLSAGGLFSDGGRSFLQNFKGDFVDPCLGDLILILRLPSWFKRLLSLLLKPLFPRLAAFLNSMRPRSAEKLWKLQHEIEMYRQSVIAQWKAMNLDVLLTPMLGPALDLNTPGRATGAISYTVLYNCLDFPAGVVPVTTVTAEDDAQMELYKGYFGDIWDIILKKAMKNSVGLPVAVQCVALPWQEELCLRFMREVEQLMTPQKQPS
# Test: FAAH inhibition enzyme assay (14C-oleamide hydrolysis, Dixon plot), rat enzyme
# Assay type: biochemical
# Settings: Table 2; rat FAAH, pH 9 assay conditions; read-out: Ki
# Description: (§2) The purified recombinant rFAAH was used in the inhibition assays unless otherwise indicated.
# (§3) The ^14C-labeled oleamide (substrate) and oleic acid (product) were extracted with EtOAc and analyzed by TLC.
row,Ki [µM],SMILES
1,0.0008,"O=C(CCCCCCc1ccccc1)c1nnc(-c2ccccn2)s1 [12b, 7-Phenyl-1-(5-(pyridin-2-yl)-1,3,4-thiadiazol-2-yl)-heptan-1-one]"
2,0.053,"O=C(O)c1cccc(-c2nc(C(=O)CCCCCCc3ccccc3)no2)n1 [10g, 6-(3-(7-Phenylheptanoyl)-1,2,4-oxadiazol-5-yl)-picolinic Acid]"
3,0.00029,"O=C(CCCCCCc1ccccc1)c1nnc(-c2ccccn2)o1 [8b, 7-Phenyl-1-(5-(pyridin-2-yl)-1,3,4-oxadiazol-2-yl)-heptan-1-one]"

# Same assay, conditions: Table 3; rat FAAH; read-out: Ki, μM (rat)
row,Ki [µM],SMILES
1,0.0008,"O=C(CCCCCCc1ccccc1)c1nnc(-c2ccccn2)s1 [12b, 7-Phenyl-1-(5-(pyridin-2-yl)-1,3,4-thiadiazol-2-yl)-heptan-1-one]"
2,0.053,"O=C(O)c1cccc(-c2nc(C(=O)CCCCCCc3ccccc3)no2)n1 [10g, 6-(3-(7-Phenylheptanoyl)-1,2,4-oxadiazol-5-yl)-picolinic Acid]"
3,0.00029,"O=C(CCCCCCc1ccccc1)c1nnc(-c2ccccn2)o1 [8b, 7-Phenyl-1-(5-(pyridin-2-yl)-1,3,4-oxadiazol-2-yl)-heptan-1-one]"

# Same assay, conditions: Table 4; read-out: FAAH Ki
row,Ki [µM],SMILES
1,0.0008,"O=C(CCCCCCc1ccccc1)c1nnc(-c2ccccn2)s1 [12b, 7-Phenyl-1-(5-(pyridin-2-yl)-1,3,4-thiadiazol-2-yl)-heptan-1-one]"
2,0.053,"O=C(O)c1cccc(-c2nc(C(=O)CCCCCCc3ccccc3)no2)n1 [10g, 6-(3-(7-Phenylheptanoyl)-1,2,4-oxadiazol-5-yl)-picolinic Acid]"
3,0.00029,"O=C(CCCCCCc1ccccc1)c1nnc(-c2ccccn2)o1 [8b, 7-Phenyl-1-(5-(pyridin-2-yl)-1,3,4-oxadiazol-2-yl)-heptan-1-one]"

# Same assay, conditions: pH=7.4 (physiological pH); read-out: Ki
row,Ki [µM],SMILES
1,0.0103,O=C(O)c1cccc(-c2cnc(C(=O)CCCCCCc3ccccc3)o2)n1 [7g]

# Same assay, conditions: pH=8; read-out: Ki
row,Ki [µM],SMILES
1,0.0145,O=C(O)c1cccc(-c2cnc(C(=O)CCCCCCc3ccccc3)o2)n1 [7g]

# Molecular target: T3, recombinant human fatty acid amide hydrolase (Homo sapiens, UniProt O00519)
# T3 construct: The full-length human FAAH (hFAAH) was expressed in COS-7 cells as described; expressed in transfected cells; host or cells: COS-7
# T3 sequence (O00519 1-579): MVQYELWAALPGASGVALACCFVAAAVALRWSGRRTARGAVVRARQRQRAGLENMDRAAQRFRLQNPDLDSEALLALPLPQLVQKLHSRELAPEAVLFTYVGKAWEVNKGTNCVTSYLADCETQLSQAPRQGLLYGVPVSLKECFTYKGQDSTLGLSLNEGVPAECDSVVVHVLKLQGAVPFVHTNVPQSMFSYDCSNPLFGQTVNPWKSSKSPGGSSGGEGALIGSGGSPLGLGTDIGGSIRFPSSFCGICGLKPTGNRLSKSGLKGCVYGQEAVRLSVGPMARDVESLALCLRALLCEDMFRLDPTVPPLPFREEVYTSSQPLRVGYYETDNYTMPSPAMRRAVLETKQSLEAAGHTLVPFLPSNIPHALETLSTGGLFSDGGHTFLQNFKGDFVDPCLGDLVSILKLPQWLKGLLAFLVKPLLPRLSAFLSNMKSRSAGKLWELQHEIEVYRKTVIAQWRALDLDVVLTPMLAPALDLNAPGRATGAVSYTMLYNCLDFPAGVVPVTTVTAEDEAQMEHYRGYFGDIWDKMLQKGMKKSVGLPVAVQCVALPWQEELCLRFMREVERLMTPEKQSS
# Test: FAAH inhibition enzyme assay, human enzyme (COS-7 lysate)
# Assay type: biochemical
# Settings: Table 3
# Description: as §2, §3
row,SMILES,Ki [µM]
1,"O=C(CCCCCCc1ccccc1)c1nnc(-c2ccccn2)s1 [12b, 7-Phenyl-1-(5-(pyridin-2-yl)-1,3,4-thiadiazol-2-yl)-heptan-1-one]",0.003
2,"O=C(CCCCCCc1ccccc1)c1nnc(-c2ccccn2)o1 [8b, 7-Phenyl-1-(5-(pyridin-2-yl)-1,3,4-oxadiazol-2-yl)-heptan-1-one]",0.0012

# Other lines, results leading:
row,Ki [µM],SMILES
1,0.11,"O=C(O)c1cccc(-c2nc(C(=O)CCCCCCc3ccccc3)no2)n1 [10g, 6-(3-(7-Phenylheptanoyl)-1,2,4-oxadiazol-5-yl)-picolinic Acid]"
2,0.026,O=C(O)c1cccc(-c2cnc(C(=O)CCCCCCc3ccccc3)o2)n1 [7g]

# Molecular target: T4, KIAA1363 (Mus musculus, UniProt Q8BLF1)
# T4 construct: with FP-Rh in brain and heart membrane proteome; from tissue; host or cells: brain and heart membrane proteome
# T4 sequence (Q8BLF1 1-408): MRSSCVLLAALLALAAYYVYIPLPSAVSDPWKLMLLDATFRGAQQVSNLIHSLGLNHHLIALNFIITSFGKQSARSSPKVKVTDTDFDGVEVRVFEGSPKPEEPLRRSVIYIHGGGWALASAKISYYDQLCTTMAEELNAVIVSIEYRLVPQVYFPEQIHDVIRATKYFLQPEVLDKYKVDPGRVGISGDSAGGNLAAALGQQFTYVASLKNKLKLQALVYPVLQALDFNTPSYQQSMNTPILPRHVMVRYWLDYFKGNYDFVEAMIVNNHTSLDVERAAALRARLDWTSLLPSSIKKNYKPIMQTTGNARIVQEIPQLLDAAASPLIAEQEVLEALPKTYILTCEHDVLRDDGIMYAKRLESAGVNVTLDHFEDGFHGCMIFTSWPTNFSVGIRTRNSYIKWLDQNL
# Test: Activity based protein profiling (proteome-wide selectivity screening, FP-Rh), KIAA1363
# Assay type: biochemical
# Settings: Table 4; activity based protein profiling
# Description: as §1
row,SMILES,IC50 [nM]
1,"O=C(CCCCCCc1ccccc1)c1nnc(-c2ccccn2)s1 [12b, 7-Phenyl-1-(5-(pyridin-2-yl)-1,3,4-thiadiazol-2-yl)-heptan-1-one]",> 100000
2,"O=C(CCCCCCc1ccccc1)c1nnc(-c2ccccn2)o1 [8b, 7-Phenyl-1-(5-(pyridin-2-yl)-1,3,4-oxadiazol-2-yl)-heptan-1-one]",90000

# Other lines, results leading:
row,IC50 [nM],SMILES
1,> 100000,"O=C(O)c1cccc(-c2nc(C(=O)CCCCCCc3ccccc3)no2)n1 [10g, 6-(3-(7-Phenylheptanoyl)-1,2,4-oxadiazol-5-yl)-picolinic Acid]"
2,> 100000,O=C(O)c1cccc(-c2cnc(C(=O)CCCCCCc3ccccc3)o2)n1 [7g]

# Same assay, conditions: Table 4; ratio KIAA1363 IC50 / FAAH IC50 (fold selectivity for FAAH)
row,SMILES,KIAA1363 selectivity (value in parentheses)
1,"O=C(CCCCCCc1ccccc1)c1nnc(-c2ccccn2)s1 [12b, 7-Phenyl-1-(5-(pyridin-2-yl)-1,3,4-thiadiazol-2-yl)-heptan-1-one]",> 3300
2,"O=C(CCCCCCc1ccccc1)c1nnc(-c2ccccn2)o1 [8b, 7-Phenyl-1-(5-(pyridin-2-yl)-1,3,4-oxadiazol-2-yl)-heptan-1-one]",90000

# Other lines, results leading:
row,KIAA1363 selectivity (value in parentheses),SMILES
1,> 1400,"O=C(O)c1cccc(-c2nc(C(=O)CCCCCCc3ccccc3)no2)n1 [10g, 6-(3-(7-Phenylheptanoyl)-1,2,4-oxadiazol-5-yl)-picolinic Acid]"
2,> 1000,O=C(O)c1cccc(-c2cnc(C(=O)CCCCCCc3ccccc3)o2)n1 [7g]

# Molecular target: T5, FAAH (Mus musculus, UniProt O08914)
# T5 construct: with FP-Rh in brain and heart membrane proteome; from tissue; host or cells: brain and heart membrane proteome
# T5 sequence (O08914 1-579): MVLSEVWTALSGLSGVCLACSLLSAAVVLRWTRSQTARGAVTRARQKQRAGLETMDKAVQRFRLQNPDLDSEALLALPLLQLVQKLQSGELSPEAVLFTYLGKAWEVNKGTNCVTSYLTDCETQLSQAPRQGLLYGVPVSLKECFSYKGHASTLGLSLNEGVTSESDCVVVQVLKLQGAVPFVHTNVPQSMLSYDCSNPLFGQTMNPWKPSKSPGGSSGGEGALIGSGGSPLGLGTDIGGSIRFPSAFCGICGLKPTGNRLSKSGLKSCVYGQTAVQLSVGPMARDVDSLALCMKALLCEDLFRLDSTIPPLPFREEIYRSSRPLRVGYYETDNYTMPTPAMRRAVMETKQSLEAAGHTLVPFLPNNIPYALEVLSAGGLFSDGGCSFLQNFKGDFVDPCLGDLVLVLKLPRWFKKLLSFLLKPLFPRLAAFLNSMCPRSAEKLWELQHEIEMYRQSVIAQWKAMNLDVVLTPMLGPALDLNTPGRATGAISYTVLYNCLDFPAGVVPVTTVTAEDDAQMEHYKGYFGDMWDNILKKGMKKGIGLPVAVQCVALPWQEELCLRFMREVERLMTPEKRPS
# Test: Activity based protein profiling (proteome-wide selectivity screening, FP-Rh), FAAH
# Assay type: biochemical
# Settings: Table 4
# Description: as §1
row,IC50 [nM],SMILES
1,30,"O=C(CCCCCCc1ccccc1)c1nnc(-c2ccccn2)s1 [12b, 7-Phenyl-1-(5-(pyridin-2-yl)-1,3,4-thiadiazol-2-yl)-heptan-1-one]"
2,70,"O=C(O)c1cccc(-c2nc(C(=O)CCCCCCc3ccccc3)no2)n1 [10g, 6-(3-(7-Phenylheptanoyl)-1,2,4-oxadiazol-5-yl)-picolinic Acid]"
3,100,O=C(O)c1cccc(-c2cnc(C(=O)CCCCCCc3ccccc3)o2)n1 [7g]
